{"source": "patent US9951226B2", "about": "“Compound based on cyanine scaffold for diagnosis sepsis by selectively detect glutathione” (EWHA UNIVERSITY—INDUSTRY COLLABORATION FOUNDATION, priority 2014, dated 2018)", "key": {"[1]": {"assay": "Detection of biothiol: absorption and fluorescence spectrum with endogenous amino acids in HEPES buffer", "type": "biochemical", "details": "10 μM compound; for absorption strength at 750 nm: HEPES pH 7.4, 10% DMSO, 25° C.; for fluorescence strength at 736 nm: λex=730 nm", "protocol": "10 μM of the compound prepared in Example 1 and 100 μM of each endogenous amino acid (glutathione, cysteine, homocysteine, dithiothreitol, phenylalanine, histidine, glutamine, lysine, glutamate, glycine, serine, alanine, arginine, methionine, tyrosine) were added to HEPES (4-(2-hydroxyethyl)piperazine-1-ethanesulfonic acid) buffer (10 mM, pH=7.4) containing 10% dimethylsulfoxide (DMSO), followed by observation of absorption spectrum presented through UV-vis sepctra (Scinco 3000 spectrophotometer, 1 cm quartz cell) at 25° C.\n(§1) The following experiment was performed by the same manner as described in Experimental Example <1-1> except that fluorescence spectrum was observed by using RF-5310/PC fluorescence spectrometer (Shimada, 1 cm quartz cell) instead of observing absorption spectrum via UV-vis sepctra (Scinco 3000 spectrophotometer, 1 cm quartz cell) (λex=730 nm, λem=736 nm, slit:10/10 nm)."}, "[2]": {"system": "HeLa cells", "assay": "Detection of intracellular biothiol in HeLa cells, confocal laser scanning microscope", "type": "cell-based, human", "details": "10 μM compound", "protocol": "HeLa cells (human adenocarcinoma cells, Korea Cell Line Bank) were cultured in RPMI 1640 (Roswell Park Memorial Institute) supplemented with 10% heat-inactivated fetal bovine serum (FBS), 100 U/mL penicillin, and 100 U/mL streptomycin in a 37° C. 5% CO2 incubator. The cells were either treated or not treated with 1 mM of N-methylmaleimide (NMM) known as a thiol blocker for 20 minutes. 100 μM of each amino acid containing thiol group (R—SH) such as cysteine, homocysteine, and glutathione was added thereto. Then, the cells were seeded in 35-mm glass bottomed dishes at the density of 3×10^5 cells/dish in 1640 medium. 24 hours later, 10 μM of the compound prepared in Example 1 was added thereto, followed by culture at 37° C. for 20 minutes. The cells were washed with DPBS (Dulbecco's Phosphate Buffered Saline) twice to eliminate the remaining compound, followed by imaging with confocal laser scanning microscope (Fluoview 1200, Olympus, Japan). At this time, the emitting filter with the excitation wavelength of 635 nm and the band-path (BP) of 655˜755 nm was used."}, "[3]": {"assay": "Glutathione selectivity: absorption/fluorescence spectrum with various amino acids in HEPES buffer", "type": "biochemical", "protocol": "10 μM of the compound prepared in Example 2 was treated to HEPES (4-(2-hydroxyethyl)piperazine-1-ethanesulfonic acid) buffer (10 mM, pH=7.4) containing 10% DMSO and 100 μM of each glutathione, cysteine, homocysteine, dithiothreitol, phenylalanine, histidine, glutamine, lysine, glutamate, glycine, serine, alanine, arginine, methionine, and tyrosine, followed by observation of fluorescence spectrum at 25° C. by using RF-5310/PC fluorescence spectrometer (Shimada, 1 cm quartz cell).\nAn experiment was performed by the same manner as described in Experimental Example 3 except that the fragment 1 or the fragment 2 was used instead of the compound prepared in Example 2. […] To disclose the reason in relation to the above, the 3-dimensional structure of each of the compound of Example 1, the compound of Example 2, and the fragment 1 or the fragment 2, was investigated along with band-gap.\n10 μM of the compound prepared in Example 3 and 100 μM of each endogenous amino acid (alanine, arginine, cysteine, glutamate, glycine, glutathione, homocysteine, histidine, lysine, methionine, serine, and tyrosine) were added to HEPES (4-(2-hydroxyethyl)piperazine-1-ethanesulfonic acid) buffer (10 mM, pH=7.4) containing 10% dimethylsulfoxide (DMSO), followed by observation of absorption spectrum presented through UV-vis sepctra (Scinco 3000 spectrophotometer, 1 cm quartz cell) at 25° C.\nas §1, with “<15-1>” for “<1-1>”"}, "[4]": {"assay": "Absorption and fluorescence spectrum according to the concentration of glutathione", "type": "biochemical", "details": "for absorption signal at 830 nm / fluorescence signal at 780 nm: 10 μM compound", "protocol": "(§2) 10 μM of the compound prepared in Example 2 and glutathione were added to HEPES (4-(2-hydroxyethyl)piperazine-1-ethanesulfonic acid) buffer (10 mM, pH=7.4) containing 10% dimethylsulfoxide (DMSO) with raising slowly the concentration of glutathione from 0 to 50 μM, during which the changes of absorption spectrum were observed using UV-vis sepctra (Scinco 3000 spectrophotometer, 1 cm quartz cell) at 25° C.\nas §1, with “<4-1>” for “<1-1>”\nas §2, with “Example 3” for “Example 2”, “to 100” for “to 50”\nas §1, with “<16-1>” for “<1-1>”"}, "[5]": {"details": "100 μM amino acids containing thiol group (glutathione, cysteine, homocysteine, dithiothreitol)"}, "[6]": {"details": "100 μM other amino acids not-containing thiol group"}, "[7]": {"details": "10 μM compound, 100 μM other amino acids except glutathione"}, "[8]": {"details": "glutathione raised from 0 to 100 μM"}}}
{"smiles": "CCCN1/C(=C/C=C2\\CCCC(/C=C/C3=[N+](CCC)c4ccccc4C3(C)C)=C2N2CCN(S(=O)(=O)c3ccc([N+](=O)[O-])cc3[N+](=O)[O-])CC2)C(C)(C)c2ccccc21.[I-]", "note": "[Example 1, 2-((E)-2-((E)-3-((E)-2-(3,3-dimethyl-1-propylindolium-2-ylidene)ethylidene)-2-(4-(2,4-dinitrophenylsulfonyl)piperazine-1-yl)cyclohex-1-enyl)binyl)-3,3-dimethyl-1-propyl-3H-indolium iodide]", "values": [{"measurement": "absorption strength at 750 nm", "setting": "[1]; [5]", "value": "strong absorption strength"}, {"measurement": "fluorescence strength at 736 nm", "setting": "[1]; [5]", "value": "strong fluorescence strength"}, {"measurement": "absorption strength at 750 nm", "setting": "[1]; [6]", "value": "weak absorption strength"}, {"measurement": "fluorescence strength at 736 nm", "setting": "[1]; [6]", "value": "weak fluorescence strength"}, {"measurement": "red fluorescence under confocal laser scanning microscope", "setting": "[2]; HeLa cells pre-treated with NMM, 100 μM cysteine added", "value": "strong red fluorescence was observed"}, {"measurement": "red fluorescence under confocal laser scanning microscope", "setting": "[2]; HeLa cells pre-treated with NMM, 100 μM glutathione added", "value": "strong red fluorescence was observed"}, {"measurement": "red fluorescence under confocal laser scanning microscope", "setting": "[2]; HeLa cells pre-treated with NMM, 100 μM homocysteine added", "value": "strong red fluorescence was observed"}, {"measurement": "red fluorescence under confocal laser scanning microscope", "setting": "[2]; HeLa cells pre-treated with thiol blocker NMM 1 mM", "value": "red fluorescence was not observed"}, {"measurement": "red fluorescence under confocal laser scanning microscope", "setting": "[2]; HeLa cells, 20 minutes", "value": "strong red fluorescence was detected"}]}
{"smiles": "CCCCN1C(=O)c2cccc3c(S(=O)(=O)N4CCN(C5=C(/C=C/C6=[N+](CCC)c7ccccc7C6(C)C)CCC/C5=C\\C=C5\\N(CCC)c6ccccc6C5(C)C)CC4)ccc(c23)C1=O.[I-]", "note": "[Example 3, 2-((E)-2-((E)-2-(4-((2-butyl-1,3-dioxo-2,3-dihydro-1H-benzeneisoquinoline-6-yl)sulfonyl)piperazine-1-yl)-3-((E)-2-(3,3-dimethyl-1-propylindolin-2-ylidene)ethylidene)cyclohex-1-en-1-yl)binyl)-3,3-dimethyl-1-propyl-3H-indolium iodide]", "values": [{"measurement": "fluorescence signal near 780 nm", "setting": "[3]; 10 μM compound, 100 μM glutathione", "value": "strong fluorescence signal"}, {"measurement": "absorption signal near 830 nm", "setting": "[3]; 10 μM compound, 100 μM glutathione, HEPES pH 7.4, 10% DMSO, 25° C.", "value": "weak absorption signal"}, {"measurement": "absorption signal at 830 nm", "setting": "[3]; [7]", "value": "strong absorption signal"}, {"measurement": "fluorescence signal at 780 nm", "setting": "[3]; [7]", "value": "weak fluorescence signal"}, {"measurement": "absorption signal at 830 nm", "setting": "[4]; glutathione not added", "value": "strong absorption signal"}, {"measurement": "fluorescence signal at 780 nm", "setting": "[4]; glutathione not added", "value": "weak fluorescence signal"}, {"measurement": "absorption signal at 830 nm", "setting": "[4]; [8]", "value": "getting weaker"}, {"measurement": "fluorescence signal at 780 nm", "setting": "[4]; [8]", "value": "getting stronger"}, {"measurement": "dependence of the reaction on glutathione concentration", "setting": "[4]; conclusion from absorption and fluorescence spectra", "value": "dose-dependently"}]}
{"smiles": "CCCN1/C(=C/C=C2\\CCCC(/C=C/C3=[N+](CCC)c4ccccc4C3(C)C)=C2N2CCNCC2)C(C)(C)c2ccccc21", "note": "[fragment 2, 2-((E)-2-((E)-3-((E)-2-(3,3-dimethyl-1-propylindolin-2-ylidene)ethylidene)-2-(piperazine-1-yl)cyclohex-1-enyl)binyl)-3,3-dimethyl-1-propyl-3H-indolium iodide]", "values": [{"measurement": "changes in absorption or fluorescence spectrum (capacity of detecting glutathione)", "setting": "[3]; same manner as Experimental Example 3, fragment instead of Example 2", "value": "no changes in absorption or fluorescence spectrum were detected"}]}
